Results as given in patent US8476255B2, “Histone deacetylase inhibitors” (Orchid Chemicals & Pharmaceuticals Limited, priority 2007, dated 2013).

Key:
[1] = system: NCIH460, HCT116 and U251 cells; experiment: Anti-cancer screen, mean GI50 over cell lines; format: cell-based; details: mean over cell lines; read-out: Cell growth inhibition Mean GI50
Experimental: (§1) Experimental drugs were screened for anti-cancer activity in three cell lines using five concentrations for each compound. The cell lines —HCT 116 (colon), NCIH460 (lung) and U251 (glioma) were maintained in DMEM containing 10% fetal bovine serum. 96-well microtiter plates are inoculated with cells in 100 μL of cell suspension (5×10^4 cells/mL) for 24 hours at 37° C., 5% CO2, 95% air and 100% relative humidity. A separate plate with these cell lines is also inoculated to determine cell viability before the addition of the compounds (T0).
(§2) Following 24-hours incubation, test compounds were added to the 96 well plates. Each plate contains one of the above cell lines and the following samples in triplicate: five different dilutions (0.01, 0.1, 1, 10 and 100 μM) of four test compounds, appropriate dilutions of a cytotoxic standard and growth medium (untreated) wells. Test compounds were dissolved in DMSO to prepare 20 mM stock solutions on the day of drug addition and serial dilutions were carried out in complete growth medium at 2× strength such that 100 μL added to wells gave final concentrations (0.01, 0.1, 1, 10 and 100 μM) in the well. SAHA was used as standard drug in these experiments.
(§3) For T0 measurement, 24 hours after seeding the cells, 20 μL of 3-(4,5-dimethyl-2-thiazolyl)-2,5-diphenyl-2H-tetrazolium (MTT) solution per well was added to the ‘T0’ plate and incubated for 3 hours at 37° C. in a CO2 incubator. The plate containing cells and test compounds was treated similarly after 48 hours of incubation. After 3 hours of MTT addition, well contents were aspirated carefully followed by addition of 150 μL DMSO per well. Plates were agitated to ensure dissolution of the formazan crystals in DMSO and absorbance was read at 570 nm (A570).
(§4) (Mosmann T. Rapid colorimetric assay for cellular growth and survival: application to proliferation and cytotoxicity assays. J Immunol Methods 1983; 65(1-2): 55-63; Anne Monks et al. Feasibility of high-flux anticancer drug screen using a diverse panel of cultured human tumor cell lines”. JNCI, Vol. 83, No. 11, 1991).

U251 (glioma) cells = experiment: Anti-cancer screen (MTT), U251; format: cell-based; details: Homo sapiens, U-251, U251, 48 hours, MTT; for GI50: read-out: Cell growth inhibition U251 (Glioma) GI50; for LC50 (concentration giving 50% net cell kill relative to the time-zero cell count): read-out: Cell growth inhibition U251 (Glioma) LC50; for IC (TGI): read-out: Cell growth inhibition U251 (Glioma) TGI
Experimental: as §1, §2, §3, §4

NCIH460 (lung) cells = experiment: Anti-cancer screen (MTT), NCIH460; format: cell-based; details: Homo sapiens, NCI-H460, NCIH460, 48 hours, MTT; for GI50: read-out: Cell growth inhibition NCIH460 (Lung) GI50; for LC50: read-out: Cell growth inhibition NCIH460 (Lung) LC50; for IC (TGI): read-out: Cell growth inhibition NCIH460 (Lung) TGI
Experimental: as §1, §2, §3, §4

HCT 116 (colon) cells = experiment: Anti-cancer screen (MTT), HCT 116; format: cell-based; details: Homo sapiens, HCT-116, HCT116, 48 hours, MTT; for GI50: read-out: Cell growth inhibition HCT116 (Colon) GI50; for CC50: read-out: Cell growth inhibition HCT116 (Colon) LC50; for IC (TGI): read-out: Cell growth inhibition HCT116 (Colon) TGI
Experimental: as §1, §2, §3, §4

[2] = system: HDAC (Mouse Liver Extract); experiment: HDAC inhibition assay using Boc-Lys(Ac)-AMC substrate; format: biochemical; details: mouse liver enzyme
Experimental: Inhibition of HDAC has been implicated to modulate transcription and to induce apoptosis or differentiation in cancer cells. The fluorometric assay provides a fast and fluorescence based method that eliminates radioactivity, extractions or chromatography, as used in traditional assays. The assay is based on two steps. First, the HDAC fluorometric substrate, which comprises an acetylated lysine side chain, is incubated with a sample containing HDAC activity (Mouse Liver Extract). Deacetylation of the substrate sensitizes the substrate, in the second step; treatment with the Trypsin stop solution produces a fluorophore that can be easily analyzed using fluorescence plate reader. Assay was done in 96-well black microplate and total volume of the assay was […]. […] The plate was pre-incubated at 37° C. for 5 minutes. […] The plate was incubated at 37° C. for 30 min. The reaction was stopped by adding 100 μL, of Trypsin stop solution and incubating at 37° C. for 15-30 min. Measuring the fluorescence at excitation wavelength of 360 nm and emission wavelength of 460 nm monitored the release of AMC. Buffer alone and substrate alone served as blank. […] (Dennis Wegener et al, Anal. Biochem, 321, 2003, 202-208).

| Compound | GI50 [1] [µM] | GI50 (U251 (glioma) cells) [µM] | LC50 (concentration giving 50% net cell kill relative to the time-zero cell count) (U251 (glioma) cells) [µM] | IC (TGI) (U251 (glioma) cells) [µM] | GI50 (NCIH460 (lung) cells) [µM] | LC50 (NCIH460 (lung) cells) [µM] | IC (TGI) (NCIH460 (lung) cells) [µM] | GI50 (HCT 116 (colon) cells) [µM] | CC50 (HCT 116 (colon) cells) [µM] | IC (TGI) (HCT 116 (colon) cells) [µM] | HDAC inhibition % (1 μM) ([2]; 1 μM) [%] | HDAC inhibition % (10 μM) ([2]; 10 μM) [%] |
| --- | --- | --- | --- | --- | --- | --- | --- | --- | --- | --- | --- | --- |
| CSc1ccc(/C=C(/C(=O)NCc2ccc(C(=O)Nc3ccccc3N)cc2)c2ccccc2Cl)cc1 [Compound 23, N-(2-Aminophenyl)-4-((3-(4-methylthiophenyl)-2-(2-chlorophenyl)acrylamido)methyl)benzamide] | 19 | > 100 | > 100 | > 100 | 34 | > 100 | > 100 | 4 | 98 | 8 | – | – |
| COc1ccc(/C(=C\c2ccc(OC)c(OC)c2)C(=O)NCc2ccc(C(=O)Nc3ccccc3N)cc2)cc1 [Compound 27, N-(2-Aminophenyl)-4-((3-(3,4-dimethoxyphenyl)-2-(4-methoxyphenyl)acrylamido)methyl)benzamide] | 1.2 | – | – | – | 2.1 | – | > 100 | 0.4 | > 100 | > 100 | 37.1 | 47.2 |
| COc1ccc(/C(=C\c2ccc(SC)cc2)C(=O)NCc2ccc(C(=O)NO)cc2)cc1 [Compound 57, 4-((2-(4-Methoxyphenyl)-3-(4-methylthiophenyl)acrylamido)methyl)-N-hydroxybenzamide] | 1.7 | 0.2 | 60 | 0.4 | 3 | 33 | 8 | 1.8 | 54 | 8 | – | – |
| CSc1ccc(/C=C(/C(=O)NCc2ccc(C(=O)NO)cc2)c2ccc(C)cc2)cc1 [Compound 58, 4-((2-(4-Methylphenyl)-3-(4-methylthiophenyl)acrylamido)methyl)-N-hydroxybenzamide] | 8.6 | 21 | 80 | 35 | 2.1 | 81 | 6 | 2.8 | 65 | 18 | – | – |
| COc1ccc(/C(=C\c2ccc(SC)cc2)C(=O)NCCCCCC(=O)NO)cc1 [Compound 92, 6-(2-(4-Methoxyphenyl)-3-(4-methylthiophenyl)acrylamido)-N-hydroxy hexanamide] | 7.8 | 10 | 76 | 16 | 6 | 82 | 40 | 7.5 | 87 | 46 | – | – |
| O=C(CCCCCNC(=O)/C(=C/C1CC1)c1ccc(F)cc1)NO [Compound 93, 6-(2-(4-Fluorophenyl)-3-(cyclopropyl)acrylamido)-N-hydroxy hexanamide] | 73 | 92 | > 100 | > 100 | > 100 | > 100 | > 100 | 54 | > 100 | > 100 | – | – |
| CSc1ccc(/C=C(/C(=O)NCCCCCC(=O)NO)c2ccccc2F)cc1 [Compound 94, 6-(2-(2-Fluorophenyl)-3-(4-methylthiophenyl)acrylamido)-N-hydroxy hexanamide] | 2.8 | 1 | 70 | 10 | 4.2 | 74 | 26 | 3.3 | 80 | 22 | – | – |
